Our source for the Ki, Control and half-life values is ChEMBL document CHEMBL1132802, “Synthesis, chiral chromatographic separation, and biological activities of the enantiomers of 10,10-dimethylhuperzine A” (Bioorg Med Chem Lett, 2000).

In series [1] the target is T1, Acetylcholinesterase (Bos taurus, UniProt P23795).
T1 sequence (P23795 whole entry): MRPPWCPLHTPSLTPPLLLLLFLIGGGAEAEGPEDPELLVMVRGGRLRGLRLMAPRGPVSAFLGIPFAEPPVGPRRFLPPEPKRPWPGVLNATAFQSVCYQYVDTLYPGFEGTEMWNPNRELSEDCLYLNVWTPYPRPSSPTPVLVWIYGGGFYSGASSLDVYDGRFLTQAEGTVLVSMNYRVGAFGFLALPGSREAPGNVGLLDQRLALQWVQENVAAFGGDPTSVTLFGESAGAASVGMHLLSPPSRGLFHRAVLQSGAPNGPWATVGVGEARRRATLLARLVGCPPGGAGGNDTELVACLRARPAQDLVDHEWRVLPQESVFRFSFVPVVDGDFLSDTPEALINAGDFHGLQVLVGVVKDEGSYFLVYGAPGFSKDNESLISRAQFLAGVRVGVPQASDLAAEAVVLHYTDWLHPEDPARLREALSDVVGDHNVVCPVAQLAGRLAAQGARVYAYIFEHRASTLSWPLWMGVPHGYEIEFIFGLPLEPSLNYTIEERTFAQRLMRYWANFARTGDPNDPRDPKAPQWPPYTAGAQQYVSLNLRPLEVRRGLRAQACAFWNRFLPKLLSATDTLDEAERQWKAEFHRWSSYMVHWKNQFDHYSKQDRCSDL
Description: Binding affinity towards Acetylcholinesterase from fetal bovine serum.

For series [2], the species on record is Rattus norvegicus. Description: Effect of pretreatment on the survival of the rat embryonic forebrain neurons when exposed to glutamate. Type of series: functional.
Series [3] is described as follows: Half life period was determined. To be noted: rat. Type of series: ADME.

One may read the Ki as the dissociation constant of the complex between target and ligand, obtained from inhibition or displacement. A higher Ki goes with a looser hold on the target. As to `C/C=C1\C2C=C(C)C[C@]1(N)c1ccc(O)nc1C2(C)C` (stereo in doubt; form 1), the affinity in series [1] corresponds to a Ki of 30.9 nM.
Turning to `C/C=C1\C2C=C(C)C[C@]1(N)c1ccc(O)nc1C2(C)C.NC(CCC(=O)O)C(=O)O` (stereo in doubt; form 2), the Control in series [2] is reported as 71.7%.
As for `C/C=C1\C2C=C(C)C[C@]1(N)c1ccc(O)nc1C2(C)C.NC(CCC(=O)O)C(=O)O` (stereo in doubt; form 3), in series [2], the Control is recorded as 71.3%.
The compound `C/C=C1\C2C=C(C)C[C@]1(N)c1ccc(O)nc1C2(C)C` (stereo in doubt; form 4) yielded a Ki in series [1] of 7.7 nM.
Consider `N[C@@H](CCC(=O)O)C(=O)O` [GLUTAMIC ACID], for which the Control in series [2] was 43.7%.
A word on the half-life: it is the time needed for the level to fall by half in the phase considered. With `C/C=C1\[C@H]2C=C(C)C[C@]1(N)c1ccc(=O)[nH]c1C2` [HUPERZINE A], the half-life in series [3] was determined as 35 min.
